Results: patent publication US11976057B2, “MrgX2 antagonists” (GlaxoSmithKline Intellectual Property Development Limited, priority 2020, dated 2024)

The compounds below were run against T1, human MRGPRX2 (Homo sapiens, UniProt Q96LB1) (assay: Ca2+ mobilization assay (FLIPR TETRA): inhibition of Cortistatin-14 mediated MRGPRX2 activation).
T1 sequence (Q96LB1 1-330): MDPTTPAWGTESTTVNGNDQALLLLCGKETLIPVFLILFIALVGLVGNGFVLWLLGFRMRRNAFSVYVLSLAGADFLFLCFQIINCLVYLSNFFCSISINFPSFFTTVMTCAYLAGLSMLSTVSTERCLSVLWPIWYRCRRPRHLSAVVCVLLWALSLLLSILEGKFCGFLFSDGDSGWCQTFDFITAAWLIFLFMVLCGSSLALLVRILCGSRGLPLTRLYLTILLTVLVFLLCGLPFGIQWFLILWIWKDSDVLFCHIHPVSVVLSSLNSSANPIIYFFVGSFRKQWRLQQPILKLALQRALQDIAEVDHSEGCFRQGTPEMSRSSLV

| IC50 [nM] | SMILES |
| --- | --- |
| 100 to 3160 | C[C@@H](C(=O)Nc1ccc2oc(C3CC3)nc2n1)N1CCC(F)(F)[C@@H](c2ccc(=O)[nH]c2)C1 [Example 17, (S)-N-(2-cyclopropyl-oxazolo[4,5-b]pyridin-5-yl)-2-((S)-4,4-difluoro-3-(6-oxo-1,6-dihydropyridin-3-yl)piperidin-1-yl)propanamide] |
| ≤ 10 | C[C@@H](C(=O)Nc1ccc(Oc2ccc(F)cc2F)cn1)N1CCC(F)(F)[C@@H](c2c[nH]c(=O)c(CS(C)(=O)=O)c2)C1 [Example 216, (S)-2-((S)-4,4-difluoro-3-(5-((methylsulfonyl)methyl)-6-oxo-1,6-dihydropyridin-3-yl)piperidin-1-yl)-N-(5-(2,4-difluorophenoxy)pyridin-2-yl)propanamide] |
| 100 to 3160 | C[C@@H](C(=O)Nc1ccc2c(n1)CN(C1CC1)C2)N1CCC(F)(F)[C@@H](c2ccc(=O)[nH]c2)C1 [Example 32, (S)-N-(6-cyclopropyl-6,7-dihydro-5H-pyrrolo[3,4-b]pyridin-2-yl)-2-((S)-4,4-difluoro-3-(6-oxo-1,6-dihydropyridin-3-yl)piperidin-1-yl)propanamide] |
| 10 to 100 | CC(C(=O)Nc1ccc(Oc2ccc(F)cc2)cn1)N1CCC(F)(F)C(c2ccc(=O)n(CCS(C)(=O)=O)c2)C1 (stereo not drawn) [Example 192, 2-(4,4-difluoro-3-(1-(2-(methylsulfonyl)ethyl)-6-oxo-1,6-dihydropyridin-3-yl)piperidin-1-yl)-N-(5-(4-fluorophenoxy)pyridin-2-yl)propanamide] |
| 100 to 3160 | CC(C)(C(=O)Nc1ccc(OCC2CC2)cn1)N1CCC(F)(F)[C@@H](c2ccc(=O)[nH]c2)C1 (single isomer, unassigned) [Example 183] |
| 100 to 3160 | CC(C(=O)Nc1ccc(C2CCCCC2)cn1)N1CCC(F)(F)[C@@H](c2ccc(=O)[nH]c2)C1 (stereo partly drawn) [Example 42, N-(5-cyclohexyl-pyridin-2-yl)-2-((S)-4,4-difluoro-3-(6-oxo-1,6-dihydropyridin-3-yl)piperidin-1-yl)propanamide] |
| 100 to 3160 | C[C@@H](C(=O)Nc1ccc2cc(C3CC3)ccc2n1)N1CCC(F)(F)[C@@H](c2ccc(=O)[nH]c2)C1 [Example 25, (S)-N-(6-cyclopropylquino-lin-2-yl)-2-((S)-4,4-difluoro-3-(6-oxo-1,6-dihydropyridin-3-yl)piperidin-1-yl)propanamide] |
| ≤ 10 | C[C@@H](C(=O)Nc1ccc(Oc2ccc(F)cc2)cn1)N1CCC(F)(F)[C@@H](c2cc[n+]([O-])cc2)C1 [Example 114, 4-((S)-4,4-difluoro-1-((S)-1-((5-(4-fluorophenoxy)pyridin-2-yl)amino)-1-oxopropan-2-yl)piperidin-3-yl)pyridine 1-oxide] |
| 100 to 3160 | C[C@@H](C(=O)Nc1ccc(OCc2ncco2)cn1)N1CCC(F)(F)[C@@H](c2ccc(=O)[nH]c2)C1 [Example 38, (S)-2-((S)-4,4-difluoro-3-(6-oxo-1,6-dihydropyridin-3-yl)piperidin-1-yl)-N-(5-(oxazol-2-ylmethoxy)pyridin-2-yl)propanamide] |
| ≤ 10 | C[C@@H](C(=O)Nc1ccc(Oc2ccc(F)cc2F)cn1)N1CCC(F)(F)C(c2cncc(C(O)C(F)(F)F)c2)C1 (mixture of isomers) [Example 265, (2S)-2-(4,4-difluoro-3-(5-(2,2,2-trifluoro-1-hydroxyethyl)pyridin-3-yl)piperidin-1-yl)-N-(5-(2,4-difluorophenoxy)pyridin-2-yl)propanamide] |
| ≤ 10 | CC(C(=O)Nc1ccc(Oc2ccc(F)cc2F)cn1)N1CCC(F)(F)C(c2ccnc(CN)c2)C1 (mixture of isomers) [Example 264, 2-(3-(2-(aminomethyl)pyridin-4-yl)-4,4-difluoropiperidin-1-yl)-N-(5-(2,4-difluorophenoxy)pyridin-2-yl)propanamide] |
| ≤ 10 | C[C@@H](C(=O)Nc1ccc(Oc2ccc(F)cc2F)cn1)N1CCC(F)(F)[C@@H](c2c[nH]c(=O)c(CNCC(F)(F)F)c2)C1 [Example 242, (S)-2-((S)-4,4-difluoro-3-(6-oxo-5-(((2,2,2-trifluoroethyl)amino)methyl)-1,6-dihydropyridin-3-yl)piperidin-1-yl)-N-(5-(2,4-difluorophenoxy)pyridin-2-yl)propanamide] |
| ≤ 10 | C[C@@H](C(=O)Nc1ccc(Oc2ccc(F)cn2)cn1)N1CCC(F)(F)[C@@H](c2c[nH]c(=O)c(CN)c2)C1 [Example 208, (S)-2-((S)-3-(5-(aminomethyl)-6-oxo-1,6-dihydropyridin-3-yl)-4,4-difluoropiperidin-1-yl)-N-(5-((5-fluoropyridin-2-yl)oxy)pyridin-2-yl)propanamide] |
| ≤ 10 | C[C@@H](C(=O)Nc1ccc(Oc2ccc(F)cc2F)cn1)N1CCC(F)(F)C(c2ccnc(C(N)=O)c2)C1 (mixture of isomers) [Example 261, 4-(1-((S)-1-((5-(2,4-difluorophenoxy)pyridin-2-yl)amino)-1-oxopropan-2-yl)-4,4-difluoropiperidin-3-yl)picolinamide] |
| ≤ 10 | CC(C(=O)Nc1ccc(Oc2ncc(F)cc2Cl)cn1)N1CCC(F)(F)[C@@H](c2ccc(=O)[nH]c2)C1 (stereo partly drawn) [Example 90, N-(5-((3-chloro-5-fluoropyridin-2-yl)oxy)pyridin-2-yl)-2-((S)-4,4-difluoro-3-(6-oxo-1,6-dihydropyridin-3-yl)piperidin-1-yl)propanamide] |
| 100 to 3160 | Cc1cc(C2CN([C@@H](C)C(=O)Nc3ccc(F)cn3)CCC2(F)F)cc[n+]1[O-] (stereo partly drawn) [Example 217, 4-(4,4-difluoro-1l-((S)-1-((5-fluoropyridin-2-yl)amino)-1-oxopropan-2-yl)piperidin-3-yl)-2-methylpyridine 1-oxide] |
| 100 to 3160 | CC(C(=O)Nc1ccc(OC2CCCCC2)cn1)N1CCC(F)(F)[C@@H](c2ccc(=O)[nH]c2)C1 (stereo partly drawn) [Example 24, N-(5-(cyclohexyloxy)pyridin-2-yl)-2-((S)-4,4-difluoro-3-(6-oxo-1,6-dihydropyridin-3-yl)piperidin-1-yl)propanamide] |
| 100 to 3160 | C[C@@H](C(=O)Nc1cnc(C2CC2)cn1)N1CCC(F)(F)[C@@H](c2ccc(=O)[nH]c2)C1 [Example 70, (S)-N-(5-cyclopropyl-pyrazin-2-yl)-2-((S)-4,4-difluoro-3-(6-oxo-1,6-dihydropyridin-3-yl)piperidin-1-yl)propanamide] |
| 100 to 3160 | C[C@@H](C(=O)Nc1ccc(Cl)cn1)N1CCC(F)(F)[C@@H](c2cc[n+]([O-])cc2)C1 [Example 112, 4-((S)-1-((S)-1-((5-chloropyridin-2-yl)amino)-1-oxopropan-2-yl)-4,4-difluoropiperidin-3-yl)pyridine 1-oxide] |
| 100 to 3160 | CC(C)c1ccc(NC(=O)C(C)N2CCC(F)(F)[C@@H](c3ccc(=O)[nH]c3)C2)nc1 (stereo partly drawn) [Example 82, 2-((S)-4,4-difluoro-3-(6-oxo-1,6-dihydropyridin-3-yl)piperidin-1-yl)-N-(5-isopropylpyridin-2-yl)propanamide] |
| ≤ 10 | C[C@@H](C(=O)Nc1cnc(Oc2cc(F)c(F)cc2F)cn1)N1CCC(F)(F)[C@@H](c2cc[n+]([O-])cc2)C1 [Example 120, 4-((S)-4,4-difluoro-1-((S)-1-oxo-1-((5-(2,4,5-trifluorophenoxy)pyrazin-2-yl)amino)propan-2-yl)piperidin-3-yl)pyridine 1-oxide] |
